{"source": "patent US20120177606A1", "about": "“LACTIC ACID BACTERIUM FOR INHIBITING PRODUCTION OF GASTRIC ACID AND GASTRIN” (SNOWDEN KABUSHIKIKAISHA, priority 2011, published 2012)", "test_system": "gastrin production", "experiment": "Side effects of continuous PPI administration (stomach weight ratio, gastrin-positive cells) and alleviation by lived No. 1088", "type": "in vivo", "conditions": "PBS-administered mice, Omeprazole 200 μg subcutaneously every other day for 4 or 8 weeks, vs no PPI", "description": "Six groups of mice were prepared, each containing five 4-week old GF-Balb/c male mice. Three of the groups were administered orally with a suspension prepared by suspending 1×10^9 CFU of lived No. 1088 in PBS, and the remaining three groups were administered orally with an equal volume of PBS.\nWhen the mice reached 8 weeks of age, a treatment was started for one group of the No. 1088-administered mice and one group of the PBS-administered mice in which the mice were administered subcutaneously every other day with a solution prepared by dissolving 200 μg of the PPI Omeprazole (AstraZeneca Ltd.) in 200 μL of PBS (8 weeks of continuous PPI administration). […]\nUpon reaching 16 weeks of age, the mice of each group were killed, and following measurement of the bodyweight, the stomach was extracted from each mouse, the stomach contents (feed and the like) were removed by washing with PBS, and the stomach weight was measured. […]\nThe stained tissue sections were subjected to observation and image capture using a fluorescence microscope BZ-9000. […]\nUsing the bodyweights and stomach weights measured upon extraction of the stomachs from the samples of each group, the ratio (%) of stomach weight to bodyweight was calculated for each group. […]", "note": "Entries after “also recorded” stand apart in the source; their conditions may differ.", "data": [{"smiles": "COc1ccc2[nH]c([S+]([O-])Cc3ncc(C)c(OC)c3C)nc2c1", "note": "(centres unmarked) [PPI, Omeprazole]", "values": [{"measurement": "number of gastrin-producing cells", "result": "increased; also recorded: significant increases"}, {"measurement": "stomach weight ratio (stomach weight to bodyweight)", "result": "significant increases"}]}]}
